The values below come from US9332764B2, “Aqueous composition for inactivating sporulated and/or non-sporulated coccidian parasites” (Ecolab USA Inc., priority 2007, dated 2016).

Entries after “also recorded” stand apart in the source; their conditions may differ.

The subject of experiment [1] is sporulated and/or non-sporulated Coccidian parasites. The experiment can be described thus: Inactivation of Coccidian parasites by chlorine dioxide solutions, general statements. As to conditions: chlorine dioxide alone, concentrations below 120 ppm. An excerpt:
Therefore the disadvantage of the method described in JP 2004-210726 is that high concentrations of chlorine dioxide have to be used in order to sufficiently inactivate the Coccidian parasites. The inventors of the present invention have performed experiments to lower the limit of the concentration of chlorine dioxide in a solution which is still effective, inactivating Coccidian parasites.
In addition the inventors have also investigated whether combinations of chlorine dioxide with other surfactants like for example alkyl sulfonates, amine oxides, ethoxylated polyalcohols, quaternary ammonium compounds, lauryl hydroxy sulfane, and alkyl ether sulfates have an effect in combination with lower concentrations of chlorine dioxide.

The test system is the same in experiment [2]. As to conditions: preferably around 800 ppm; cited from earlier work.
Experiment [3] concerns sporulated oocysts of Eimeria papillata. The experiment can be described thus: Infection of mice with treated sporulated oocysts, excretion of oocysts in excrements. Type of experiment: in vivo, Eimeria papillata in Balb/C-mice. Also on record: key to excretion 4 dpi / excretion 5 dpi / excretion 6 dpi / excretion 7 dpi: +++: massive excretion of oocysts; ++: excretion of many oocysts; +: excretion of few oocysts; −: no oocysts detectable. As to conditions: for excretion 4 dpi / excretion 5 dpi / excretion 6 dpi / excretion 7 dpi: 60 min; for excretion 4 dpi: 4 days after infection; for excretion 5 dpi: 5 days after infection; for excretion 6 dpi: 6 days after infection; for excretion 7 dpi: 7 days after infection. On the procedure:
(§1) For the experiments 20 g female Balb/C-mice were used. […] The flotation medium was prepared containing 124.5 g NaCl and 435.8 g saccharide which was diluted with water and filled up to 1 litre. Fresh non-sporulated oocysts were prepared. Subsequently the Balb/C-mice were infected with 20,000 sporulated oocysts. From the fourth day after infection, fresh mouse excrement is collected and isolated by flotation. Residual flotation medium is removed by washing three times with clean water.
Sporulated infectious oocysts were incubated at 25° C. for one week.
(§2) A chlorine dioxide solution is prepared by mixing a solution containing sodium chlorite and an acidic solution. By reaction chlorine dioxide is produced. The solution comprises 120 ppm chorine dioxide. By further dilution, chlorine dioxide solutions of 40, 20, 10, 4, 1, and 0.5 ppm are produced which are immediately used for the experiments.
A further series of experiments was performed in order to evaluate the inactivation pattern of sporulated oocysts. […] After that the oocyst suspensions were washed with water for three times and 20,000 oocysts were orally administered to a mouse. Per concentration one mouse was used. In addition two mice were treated, each with 20,000 non-treated, sporulated oocysts for control purposes. From the fourth day after infection samples of the excrements of the mice were taken daily and the presence of oocysts of Eimeria papillata was examined. (see table 3) […]

The test system of experiment [4] is non-sporulated oocysts of Eimeria papillata. The experiment can be described thus: Incubation of fresh non-sporulated oocysts, then check for sporulation after one week at 25° C. Type of experiment: cell-based. Particulars: incubation 60 min; for result (sporulation): room temperature, no surfactant. How it is done: as §1, §2
Oocysts of Eimeria papillata were filtered from fresh mice excrements and incubated for 60 min with freshly produced chlorine dioxide solution at concentrations of 40, 20, 10, 4, 1, 0.5 ppm at room temperature. After 60 min incubation time the oocyst suspensions were washed with water and cultured for sporulation in 1 ml water. The probes were incubated for one week at 25° C. As control a non-treated, non-sporulated oocyst sample was used which was also incubated for one week at 25° C. After seven days it was checked if a sporulation occurred. (see table 1)
In the same way experiments were carried out with the aqueous composition according to the invention comprising chlorine dioxide and as an anionic surfactant Dofax 2A1 (Dow Chemicals) which is a mixture of a disodium oxybis(dodecyl benzenesulfonate) and a dodecyl(sulfophenoxy)disodium salt of benzene sulfonic acid. The composition comprises between 0.5 to 25 ppm chlorine dioxide and 0.2 wt. % of the anionic surfactant. (see table 2)

The next experiment concerns Eimeria oocysts. As to conditions: cited from earlier work.
Setting [5] is: oocysts treated with ClO2 4 ppm.
[6] abbreviates: oocysts treated with ClO2 10 ppm.
Setting [7] is: oocysts treated with ClO2 20 ppm.
Where [8] appears, read: oocysts treated with ClO2 40 ppm.
Where [9] appears, read: oocysts treated with ClO2 120 ppm.
The mark [10] stands for this setting: oocysts treated with ClO2 240 ppm.

As for `[O][Cl+][O-]` [chlorine dioxide solution, chlorine dioxide], in experiment [1], the “inactivation / eradication of coccoid organisms” value is recorded as “ineffective; also recorded: will not inactivate”. The “chlorine dioxide concentration known to completely inactivate sporulated and/or non-sporulated Coccidian parasites” value in experiment [2] is “above 200 ppm”. Besides, in experiment [3] (chlorine dioxide between 4 and 40 ppm, incubation 60 min), the “excretion of oocysts of Eimeria papillata in Balb/C-mice” value is “cannot be avoided”. In experiment [3] (concentrations of 120 ppm and 240 ppm), the detectable oocysts entry is on record as “no detectable oocysts”. The “excretion 4 dpi” value is reported as “++” in experiment [3] (setting [5]); “++” in experiment [3] (setting [6]); “++” in experiment [3] (setting [7]); “+” in experiment [3] (setting [8]); “−” in experiment [3] (setting [9]); “−” in experiment [3] (setting [10]). Further, the “excretion 5 dpi” value is “++” in experiment [3] (setting [5]); “++” in experiment [3] (setting [6]); “++” in experiment [3] (setting [7]); “+” in experiment [3] (setting [8]); “−” in experiment [3] (setting [9]); “−” in experiment [3] (setting [10]). In addition, the “excretion 6 dpi” value is given as “++” in experiment [3] (setting [5]); “++” in experiment [3] (setting [6]); “+” in experiment [3] (setting [7]); “+” in experiment [3] (setting [8]); “−” in experiment [3] (setting [9]); “−” in experiment [3] (setting [10]). The “excretion 7 dpi” value in experiment [3] (setting [5]) is given as “+”; in experiment [3] (setting [6]), “+”; in experiment [3] (setting [7]) it was “+”; in experiment [3] (setting [8]), “+”; in experiment [3] (setting [9]) it was “−”; in experiment [3] (setting [10]), “−”. Besides, the “result (sporulation)” value in experiment [4] (ClO2 0.5 ppm) is reported as “complete”; in experiment [4] (ClO2 1 ppm) it was “complete”; in experiment [4] (ClO2 4 ppm), “complete”; in experiment [4] (ClO2 10 ppm), “complete”; in experiment [4] (ClO2 20 ppm) it was “complete”; in experiment [4] (ClO2 40 ppm), “partial”. Besides, the sporulation entry in experiment [4] (chlorine dioxide only, concentrations below 40 ppm) is listed as “complete or partial sporulation”.

In the case of `O=S(=O)([O-])[O-].[Cu+2]` [copper sulfate], the “effectiveness for eradication of coccoid oocysts” value (“effectiveness for eradication” for short) in the experiment on Eimeria oocysts is reported as “ineffective”.

Take `C=O` [formalin]: the “effectiveness for eradication” value with Eimeria oocysts is “ineffective”.

In the case of `O=CCCCC=O` [glutaraldehyde], the “effectiveness for eradication” value in the experiment on Eimeria oocysts was “ineffective”.

`CC(=O)OO` [peracetic acid]: the “effectiveness for eradication” value in the experiment on Eimeria oocysts is listed as “ineffective”.

`[K+].[K+].[O]=[Cr](=[O])([O-])[O][Cr](=[O])(=[O])[O-]` [potassium dichromate]: the “effectiveness for eradication” value with Eimeria oocysts was “ineffective”.

Consider `[K+].[OH-]` [potassium hydroxide], for which, in the experiment on Eimeria oocysts, the “effectiveness for eradication” value is “ineffective”.

As to `[I-].[K+]` [potassium iodide], the “effectiveness for eradication” value with Eimeria oocysts was “ineffective”.

On to `OCl` [sodium hypochlorite], for which the “effectiveness for eradication” value in the experiment with Eimeria oocysts is listed as “ineffective”.

Turning to `O=S(=O)(O)O` [sulfuric acid], in the experiment on Eimeria oocysts, the “effectiveness for eradication” value is reported as “ineffective”.

benzalkonium chloride: in the experiment with Eimeria oocysts, the “effectiveness for eradication” value is “ineffective”.

cresylic acid: the “effectiveness for eradication” value in the experiment with Eimeria oocysts is reported as “ineffective”.
